In PMC6934184, “Selective DNA-PKcs inhibition extends the therapeutic index of localized radiotherapy and chemotherapy” (The Journal of Clinical Investigation, 2019):

Biological target: T1, STK39 (STLK3) (Homo sapiens, UniProt Q9UEW8)
T1 construct: purchased Thermo Fisher Scientific (Life Technologies) SelectScreen
Experiment: SelectScreen LanthaScreen
Assay type: binding
Details: read-out: % displacement
Method in brief: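 SelectScreen broad panel; activity (Z'LYTE, Adapta) plus binding formats. ATP: Km app for CSF1R Z'LYTE; 10 for CAMK1 Adapta. Readout = % per kinase.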

CN(C(=O)CN1CCOCC1)c1ccc2sc3c(-c4cccc5c(=O)cc(N6CC7CCC(C6)O7)oc45)cccc3c2c1 [NU5455]
inhibition at 1 µM: 16.2%
